From patent US20230027026A1, “FUSED PYRIMIDINE COMPOUNDS, COMPOSITIONS AND MEDICINAL APPLICATIONS THEREOF” (JUBILANT BIOSYS LIMITED, priority 2019, published 2023)
Where a name gives a salt, the structure may show the parent alone.

Legend:
Format in all cases: cell-based
A431 cells = assay: Cellular proliferation (Alamar Blue) assay, A431; details: Homo sapiens, A-431; A431 cells, 72 hr, Alamar Blue; read-out: A431 IC50
Summary of the method: (§1)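 Seventy-two-hour growth assay with 3-fold compound titration (final 10–0.0005 μM) and Alamar Blue fluorescence end point, ex 540/em 590 nm.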

[1] = target: EGFR (A767_dupASV) expressing Ba/F3 stable cell line (Homo sapiens, UniProt P00533, DUP767-769, cells depend on it); assay: Cellular proliferation (Alamar Blue) assay, EGFR A767_dupASV Ba/F3; details: EGFR A767_dupASV Ba/F3, 72 hr, read-out: A767 IC50
Summary of the method: as §1

[2] = target: EGFR(D770_N771insSVD) expressing Ba/F3 stable cell line (Homo sapiens, UniProt P00533, DUP768-770, cells depend on it); assay: Cellular proliferation (Alamar Blue) assay, EGFR D770_N771insSVD Ba/F3; details: EGFR D770_N771insSVD Ba/F3, 72 hr, read-out: D770 IC50
Summary of the method: as §1

[3] = target: HER2 (A775_G776insYVMA) expressing Ba/F3 stable cell line (Homo sapiens, UniProt P04626, DUP772-775, cells depend on it); assay: Cellular proliferation (Alamar Blue) assay, HER2 YVMA Ba/F3; details: HER2 A775_G776insYVMA Ba/F3, 72 hr, read-out: YVMA IC50
Protocol: Example 3: Cellular Proliferation (Alamar Blue) Assays
• 1. EGFR(D770_N771insSVD) expressing Ba/F3 stable cell line • 2. EGFR (A767_dupASV) expressing Ba/F3 stable cell line • 3. A431 cells • 4. BTER2 (A775_G776insYVMA) expressing Ba/F3 stable cell line • 5. BTER2 (WT) expressing Ba/F3 stable cell line • 6. BT-474 cells
• 1. Seed cells at 5000 for A431 and 15,000 cells for Ba/F3 in 100 μL/well in complete media (for A431: DMEM with 10% FBS and for Ba/F3 cells: RPMI with 10% FBS) in 96-well tissue culture plate. Leave outer wells without cells for background measurements. Incubate at 37 degree Celsius in 5% CO2 humidified incubator for 16-18 hours. • 2. Add 0.025 ml of 5× concentration compound dilution or DMSO control. Final compound concentration range is 10-0.0005 μM prepared in 3-fold serial dilutions. Incubate for 72 hr at 37 degree Celsius in […] humidified incubator. • 3. Add 0.0125 mL Alamar Blue™ reagent to each well with multi-channel pipette and tap gently on each side of the plate to mix. Incubate for 3 hours at 37 degree Celsius in […] humidified incubator. • 4. Read plates on fluorescence reader (Tecan Spark Control, Device: Spark, Serial #: 1801006040) at 540 nm excitation, 590 nm emission wavelength. • 5. Data analysis was performed using XLfit 5.5.0.5.

HER2 (A775_G776insYVMA) expressing Ba/F3 stable cell line, sequence (P04626 with tags, fused parts or gaps DUP772-775): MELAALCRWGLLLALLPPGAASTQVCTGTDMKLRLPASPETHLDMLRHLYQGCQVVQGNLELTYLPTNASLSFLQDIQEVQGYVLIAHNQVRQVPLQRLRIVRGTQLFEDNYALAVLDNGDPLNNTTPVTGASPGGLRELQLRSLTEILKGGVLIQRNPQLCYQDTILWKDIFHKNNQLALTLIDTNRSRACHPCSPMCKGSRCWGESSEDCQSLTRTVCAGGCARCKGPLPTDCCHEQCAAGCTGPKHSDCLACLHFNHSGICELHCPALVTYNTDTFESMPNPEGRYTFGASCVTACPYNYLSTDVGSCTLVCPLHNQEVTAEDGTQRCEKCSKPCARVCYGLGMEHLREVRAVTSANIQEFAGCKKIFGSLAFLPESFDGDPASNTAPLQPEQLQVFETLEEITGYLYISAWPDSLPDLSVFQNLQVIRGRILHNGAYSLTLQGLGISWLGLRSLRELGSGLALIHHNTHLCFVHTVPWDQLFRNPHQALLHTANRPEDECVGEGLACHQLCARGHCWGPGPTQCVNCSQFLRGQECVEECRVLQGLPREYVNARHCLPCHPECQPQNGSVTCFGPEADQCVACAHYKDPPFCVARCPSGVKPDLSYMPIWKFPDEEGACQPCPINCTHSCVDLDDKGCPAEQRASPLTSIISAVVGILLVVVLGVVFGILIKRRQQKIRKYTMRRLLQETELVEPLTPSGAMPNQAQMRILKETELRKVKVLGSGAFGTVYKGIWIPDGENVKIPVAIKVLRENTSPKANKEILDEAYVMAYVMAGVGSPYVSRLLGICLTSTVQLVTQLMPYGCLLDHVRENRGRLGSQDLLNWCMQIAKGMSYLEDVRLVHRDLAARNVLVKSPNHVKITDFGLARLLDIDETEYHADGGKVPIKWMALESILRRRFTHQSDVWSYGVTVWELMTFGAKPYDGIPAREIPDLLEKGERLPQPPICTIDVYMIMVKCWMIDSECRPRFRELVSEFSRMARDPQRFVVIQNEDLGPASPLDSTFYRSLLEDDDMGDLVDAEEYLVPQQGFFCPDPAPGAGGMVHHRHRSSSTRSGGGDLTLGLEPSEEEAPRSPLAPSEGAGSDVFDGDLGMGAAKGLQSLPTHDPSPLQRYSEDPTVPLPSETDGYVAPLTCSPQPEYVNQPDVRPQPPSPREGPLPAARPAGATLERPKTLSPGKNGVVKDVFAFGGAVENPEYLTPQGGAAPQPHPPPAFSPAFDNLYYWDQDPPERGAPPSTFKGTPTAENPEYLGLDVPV
EGFR(D770_N771insSVD) expressing Ba/F3 stable cell line, sequence (P00533 with tags, fused parts or gaps DUP768-770): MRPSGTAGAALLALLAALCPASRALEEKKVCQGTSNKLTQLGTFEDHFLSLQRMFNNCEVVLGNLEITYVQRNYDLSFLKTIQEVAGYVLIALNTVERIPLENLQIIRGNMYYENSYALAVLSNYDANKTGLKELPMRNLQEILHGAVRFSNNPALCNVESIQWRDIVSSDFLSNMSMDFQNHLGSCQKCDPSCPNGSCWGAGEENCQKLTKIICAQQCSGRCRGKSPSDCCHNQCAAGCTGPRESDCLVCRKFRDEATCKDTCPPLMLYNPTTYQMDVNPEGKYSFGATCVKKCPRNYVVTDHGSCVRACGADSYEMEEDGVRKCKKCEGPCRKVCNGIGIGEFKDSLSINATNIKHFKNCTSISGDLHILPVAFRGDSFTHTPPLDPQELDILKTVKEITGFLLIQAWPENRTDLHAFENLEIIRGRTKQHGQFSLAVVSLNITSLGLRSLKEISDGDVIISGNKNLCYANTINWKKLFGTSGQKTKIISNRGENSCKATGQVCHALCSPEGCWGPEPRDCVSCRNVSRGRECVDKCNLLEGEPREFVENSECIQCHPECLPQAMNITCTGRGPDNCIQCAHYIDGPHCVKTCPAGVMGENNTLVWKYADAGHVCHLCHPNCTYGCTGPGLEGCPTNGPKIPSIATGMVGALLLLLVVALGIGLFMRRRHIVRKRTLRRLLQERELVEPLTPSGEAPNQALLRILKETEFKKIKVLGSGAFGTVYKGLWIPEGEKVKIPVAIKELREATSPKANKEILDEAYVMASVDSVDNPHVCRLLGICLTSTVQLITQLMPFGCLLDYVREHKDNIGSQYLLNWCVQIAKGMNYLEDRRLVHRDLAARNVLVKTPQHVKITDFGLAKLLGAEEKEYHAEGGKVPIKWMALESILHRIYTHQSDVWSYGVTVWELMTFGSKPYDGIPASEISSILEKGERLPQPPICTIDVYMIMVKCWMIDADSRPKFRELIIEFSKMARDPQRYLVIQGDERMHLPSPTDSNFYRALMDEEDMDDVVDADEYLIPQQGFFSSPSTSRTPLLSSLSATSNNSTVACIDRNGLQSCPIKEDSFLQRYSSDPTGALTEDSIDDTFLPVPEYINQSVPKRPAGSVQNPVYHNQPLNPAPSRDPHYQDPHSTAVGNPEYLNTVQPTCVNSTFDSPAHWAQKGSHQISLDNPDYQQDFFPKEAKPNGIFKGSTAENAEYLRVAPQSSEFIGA
EGFR (A767_dupASV) expressing Ba/F3 stable cell line, sequence (P00533 with tags, fused parts or gaps DUP767-769): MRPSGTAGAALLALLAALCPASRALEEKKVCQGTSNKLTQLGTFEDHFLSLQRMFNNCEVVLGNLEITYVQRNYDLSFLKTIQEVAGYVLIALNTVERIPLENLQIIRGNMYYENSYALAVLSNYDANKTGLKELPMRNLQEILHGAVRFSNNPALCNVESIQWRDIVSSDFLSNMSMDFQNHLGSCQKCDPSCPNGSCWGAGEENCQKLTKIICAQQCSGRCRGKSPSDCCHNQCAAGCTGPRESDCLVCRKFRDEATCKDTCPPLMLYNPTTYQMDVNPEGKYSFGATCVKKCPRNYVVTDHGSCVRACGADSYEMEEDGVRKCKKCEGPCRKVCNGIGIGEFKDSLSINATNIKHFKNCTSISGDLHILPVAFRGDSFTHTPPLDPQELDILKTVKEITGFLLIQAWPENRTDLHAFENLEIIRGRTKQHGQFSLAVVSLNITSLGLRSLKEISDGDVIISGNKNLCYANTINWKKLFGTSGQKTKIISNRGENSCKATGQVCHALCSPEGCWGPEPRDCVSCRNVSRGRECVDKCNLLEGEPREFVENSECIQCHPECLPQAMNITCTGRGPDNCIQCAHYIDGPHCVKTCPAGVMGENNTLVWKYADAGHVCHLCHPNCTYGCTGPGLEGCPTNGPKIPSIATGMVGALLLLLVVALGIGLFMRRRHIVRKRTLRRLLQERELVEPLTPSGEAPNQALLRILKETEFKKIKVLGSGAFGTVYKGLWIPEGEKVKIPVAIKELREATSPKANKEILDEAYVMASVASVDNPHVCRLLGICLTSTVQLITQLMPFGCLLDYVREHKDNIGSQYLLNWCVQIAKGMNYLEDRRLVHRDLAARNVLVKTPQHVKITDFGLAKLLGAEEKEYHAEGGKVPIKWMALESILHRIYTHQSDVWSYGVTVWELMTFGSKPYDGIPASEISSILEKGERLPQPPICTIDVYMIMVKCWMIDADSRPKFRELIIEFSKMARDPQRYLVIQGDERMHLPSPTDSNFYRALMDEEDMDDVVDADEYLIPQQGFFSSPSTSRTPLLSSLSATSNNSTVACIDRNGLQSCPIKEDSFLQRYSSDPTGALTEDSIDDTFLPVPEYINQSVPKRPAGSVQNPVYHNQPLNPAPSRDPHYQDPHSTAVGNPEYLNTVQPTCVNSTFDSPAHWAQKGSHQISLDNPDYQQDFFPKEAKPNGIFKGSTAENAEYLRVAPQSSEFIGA

SMILES | IC50 (A431 cells) [nM] | GI50 [1] [nM] | GI50 [2] [nM] | GI50 [3] [nM]
Cn1cc(Nc2ncc3c(n2)N(c2cccc(NC(=O)/C=C/CN4CCCCC4)c2)C(=O)N(Cc2ccccc2)C3)c(Cl)n1 [Compound 70, (E)-N-(3-(3-benzyl-7-((3-chloro-1-methyl-1H-pyrazol-4-yl)amino)-2-oxo-3,4-dihydropyrimido[4,5-d]pyrimidin-1(2H)-yl)phenyl)-4-(piperidin-1-yl)but-2-enamide] | ≥ 10000 | 42 | 72 | 38
CN(C)C/C=C/C(=O)Nc1cccc(N2C(=O)N(c3ccccc3)Cc3cnc(Nc4cnn(C5CCC(O)CC5)c4)nc32)c1 (stereo not shown) [Compound 107, (E)-4-(dimethylamino)-N-(3-(7-((1-(4-hydroxycyclohexyl)-1H-pyrazol-4-yl)amino)-2-oxo-3-phenyl-3,4-dihydropyrimido[4,5-d]pyrimidin-1(2H)-yl)phenyl)but-2-enamide] | ≥ 10000 | ≥ 10000 | ≥ 10000 | ≥ 10000
C=CC(=O)Nc1cccc(N2C(=O)N(c3ccccc3)Cc3cnc(Nc4cn(C5CCC(O)CC5)nc4Cl)nc32)c1 (stereo not shown) [Compound 129, N-(3-(7-((3-chloro-1-(4-hydroxycyclohexyl)-1H-pyrazol-4-yl)amino)-2-oxo-3-phenyl-3,4-dihydropyrimido[4,5-d]pyrimidin-1(2H)-yl)phenyl)acrylamide trifluoroacetate salt] | ≥ 10000 | 157 | 333 | 312
C=CC(=O)Nc1cccc(N2C(=O)N(Cc3ccccc3)Cc3cnc(Nc4cn(C)nc4F)nc32)c1 [Compound 71, N-(3-(3-benzyl-7-((3-fluoro-1-methyl-1H-pyrazol-4-yl)amino)-2-oxo-3,4-dihydropyrimido[4,5-d]pyrimidin-1(2H)-yl)phenyl)acrylamide] | ≥ 10000 | 22 | 21 | 137
C=CC(=O)Nc1cccc(N2C(=O)N(c3ccccc3)Cc3cnc(Nc4cccc5c4CCN5C4CCN(C)CC4)nc32)c1 [Compound 118, N-(3-(7-((1-(1-methylpiperidin-4-yl)indolin-4-yl)amino)-2-oxo-3-phenyl-3,4-dihydropyrimido[4,5-d]pyrimidin-1(2H)-yl)phenyl)acrylamide] | ≥ 10000 | 32 | 110 | 103
C=CC(=O)Nc1ccc(N2C(=O)N(c3ccccc3)Cc3cnc(Nc4cn(C)nc4Cl)nc32)cc1 [Compound 131, N-(4-(7-((3-chloro-1-methyl-1H-pyrazol-4-yl)amino)-2-oxo-3-phenyl-3,4-dihydropyrimido[4,5-d]pyrimidin-1(2H)-yl)phenyl)acrylamide] | 3510 | 373 | 765 | 1130
C=CC(=O)Nc1cccc(N2C(=O)N(Cc3ccccc3)Cc3cnc(Nc4cccc5c4CCN5C)nc32)c1 [Compound 79, N-(3-(3-benzyl-7-((1-methylindolin-4-yl)amino)-2-oxo-3,4-dihydropyrimido[4,5-d]pyrimidin-1(2H)-yl)phenyl)acrylamide] | ≥ 10000 | 89 | 107 | 338
CN(C)C1CCN(C/C=C/C(=O)Nc2cccc(N3C(=O)N(c4ccccc4)Cc4cnc(Nc5cn(C)nc5Cl)nc43)c2)CC1 [Compound 124, (E)-N-(3-(7-((3-chloro-1-methyl-1H-pyrazol-4-yl)amino)-2-oxo-3-phenyl-3,4-dihydropyrimido[4,5-d]pyrimidin-1(2H)-yl)phenyl)-4-(4-(dimethylamino)piperidin-1-yl)but-2-enamide] | ≥ 10000 | 2760 | 4980 | 1480
Cc1ccc(CN2Cc3cnc(Nc4cn(C)nc4Cl)nc3N(c3cccc(NC(=O)/C=C/CN(C)C)c3)C2=O)c(C)c1 [Compound 68, (E)-N-(3-(7-((3-chloro-1-methyl-1H-pyrazol-4-yl)amino)-3-(2,4-dimethylbenzyl)-2-oxo-3,4-dihydropyrimido[4,5-d]pyrimidin-1(2H)-yl)phenyl)-4-(dimethylamino)but-2-enamide] | 6020 | 356 | 798 | 632
C=CC(=O)Nc1cccc(N2C(=O)N(Cc3ccccc3)Cc3cnc(Nc4cn(C)nc4Cl)nc32)c1 [Compound 73, N-(3-(3-benzyl-7-((3-chloro-1-methyl-1H-pyrazol-4-yl)amino)-2-oxo-3,4-dihydropyrimido[4,5-d]pyrimidin-1(2H)-yl)phenyl)acrylamide] | ≥ 10000 | 4 | 20 | 49
CN(C)C/C=C/C(=O)Nc1cccc(N2C(=O)N(Cc3ccccc3)Cc3cnc(Nc4ccc(N5CCN(C)CC5)nc4)nc32)c1 [Compound 66, (E)-N-(3-(3-benzyl-7-((6-(4-methylpiperazin-1-yl)pyridin-3-yl)amino)-2-oxo-3,4-dihydropyrimido[4,5-d]pyrimidin-1(2H)-yl)phenyl)-4-(dimethylamino)but-2-enamide] | ≥ 10000 | 3280 | 3190 | 1760

Next, values leading:

IC50 (A431 cells) [nM] | GI50 [1] [nM] | GI50 [2] [nM] | GI50 [3] [nM] | SMILES
≥ 10000 | 39 | 128 | 64 | Cn1cc(Nc2ncc3c(n2)N(c2cccc(NC(=O)/C=C/CN4CCCCC4)c2)C(=O)N(c2ccccc2)C3)c(Cl)n1 [Compound 111, (E)-N-(3-(7-((3-chloro-1-methyl-1H-pyrazol-4-yl)amino)-2-oxo-3-phenyl-3,4-dihydropyrimido[4,5-d]pyrimidin-1(2H)-yl)phenyl)-4-(piperidin-1-yl)but-2-enamide]
≥ 10000 | 1010 | 992 | 740 | COC/C=C/C(=O)Nc1cccc(N2C(=O)N(Cc3ccccc3)Cc3cnc(Nc4cn(C)nc4F)nc32)c1 [Compound 83, (E)-N-(3-(3-benzyl-7-((3-fluoro-1-methyl-1H-pyrazol-4-yl)amino)-2-oxo-3,4-dihydropyrimido[4,5-d]pyrimidin-1(2H)-yl)phenyl)-4-methoxybut-2-enamide]
≥ 10000 | 1 | 7 | 24 | C=CC(=O)Nc1cccc(N2C(=O)N(c3ccccc3)Cc3cnc(Nc4cn(C)nc4Cl)nc32)c1 [Compound 116, N-(3-(7-((3-chloro-1-methyl-1H-pyrazol-4-yl)amino)-2-oxo-3-phenyl-3,4-dihydropyrimido[4,5-d]pyrimidin-1(2H)-yl)phenyl)acrylamide]
≥ 10000 | 8600 | ≥ 10000 | 883 | C=C(C)C(=O)Nc1cccc(N2C(=O)N(c3ccccc3)Cc3cnc(Nc4cn(C)nc4Cl)nc32)c1 [Compound 121, N-(3-(7-((3-chloro-1-methyl-1H-pyrazol-4-yl)amino)-2-oxo-3-phenyl-3,4-dihydropyrimido[4,5-d]pyrimidin-1(2H)-yl)phenyl)methacrylamide]
≥ 10000 | 98 | 140 | 144 | COC/C=C/C(=O)Nc1cccc(N2C(=O)N(c3ccccc3)Cc3cnc(Nc4cn(C)nc4Cl)nc32)c1 [Compound 119, (E)-N-(3-(7-((3-chloro-1-methyl-1H-pyrazol-4-yl)amino)-2-oxo-3-phenyl-3,4-dihydropyrimido[4,5-d]pyrimidin-1(2H)-yl)phenyl)-4-methoxybut-2-enamide]
